Assay results as given in ChEMBL document CHEMBL2346508, “Bifunctional inhibition of HIV-1 reverse transcriptase: a first step in designing a bifunctional triphosphate” (Bioorg Med Chem Lett, 2013).
Calls of active or inactive are those of the source. No cut-off for these calls is given here.

Assays:
[1] = system: Human immunodeficiency virus 1; experiment: Antiviral activity against HIV-1 infected un MT2 cells assessed as virus-induced cytopathicity after 5 days by MTT assay; format: functional, organism-based; settings: Human immunodeficiency virus 1, MT2, 120 h
MT2 = experiment: Cytotoxicity against human MT2 cells after 5 days by MTT assay; format: cell-based; settings: MT2, 120 h
[2] = target: Human immunodeficiency virus type 1 reverse transcriptase (Human immunodeficiency virus 1) (UniProt Q72547); experiment: Inhibition of HIV-1 RT assessed as inhibition of annealing of D23/D36 primer/template at 150 uM by polyacrylamide denaturing gel-based incorporation assay

| inhibition [2] | SMILES | EC50 [1] [µM] | IC50 (MT2) [µM] |
| --- | --- | --- | --- |
| – | CC(C)=CCN1Cc2c(OCCOCCOCCOCCOCCOCCOCCOCCOC(=O)CCc3cn([C@H]4C=C[C@@H](CO)O4)c(=O)[nH]c3=O)ccc3[nH]c(=S)n(c23)C[C@@H]1C | 120 | > 100 |
| – | Cc1cn([C@H]2C=C[C@@H](CO)O2)c(=O)[nH]c1=O [STAVUDINE] | 2.2 | > 100 |
| – | CC(C)=CCN1Cc2c(OCCOCCOCCOCCOCCOCCOC(=O)CCc3cn([C@H]4C=C[C@@H](CO)O4)c(=O)[nH]c3=O)ccc3[nH]c(=S)n(c23)C[C@@H]1C | 100 | > 100 |
| – | CC(C)=CCN1Cc2c(OCCOCCOCCOCCOCCOCCn3c(=O)ccn([C@H]4C=C[C@@H](CO)O4)c3=O)ccc3[nH]c(=S)n(c23)C[C@@H]1C | 20 | 38 |
| – | CC(C)=CCN1Cc2c(OCCOCCOCCOCCOCCOCCOCCOCCO)ccc([N+](=O)[O-])c2NC[C@@H]1C | 27 | > 100 |
| inactive | CC(C)=CCN1Cc2c(OCCOCCOCCOCCOCCOCCn3c(=O)ccn([C@H]4C=C[C@@H](COP(=O)(O)OP(=O)(O)OP(=O)(O)O)O4)c3=O)ccc3[nH]c(=S)n(c23)C[C@@H]1C | – | – |
| – | CC(C)=CCN1Cc2c(OCCOCCOCCOCCOC(=O)CCc3cn([C@H]4C=C[C@@H](CO)O4)c(=O)[nH]c3=O)ccc3[nH]c(=S)n(c23)C[C@@H]1C | 45 | > 100 |
